This is an account of results in ChEMBL document CHEMBL1147599 (Bioorg Med Chem Lett, 2004).

The assay has as its target T1, Neuropeptide Y receptor type 2 (Homo sapiens, UniProt P49146).
T1 sequence (P49146 whole entry): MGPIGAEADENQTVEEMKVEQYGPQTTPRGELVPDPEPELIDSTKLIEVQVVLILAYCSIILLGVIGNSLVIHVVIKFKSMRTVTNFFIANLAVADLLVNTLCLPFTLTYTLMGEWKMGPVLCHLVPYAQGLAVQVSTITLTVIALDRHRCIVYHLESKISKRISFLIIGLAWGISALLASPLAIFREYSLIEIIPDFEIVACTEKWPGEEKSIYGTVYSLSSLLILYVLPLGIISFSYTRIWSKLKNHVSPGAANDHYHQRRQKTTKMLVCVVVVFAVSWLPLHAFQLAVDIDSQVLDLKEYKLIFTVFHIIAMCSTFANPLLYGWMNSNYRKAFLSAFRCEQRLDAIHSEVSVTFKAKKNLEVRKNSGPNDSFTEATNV
Kind of assay: Binding affinity towards the NPY Y2 receptor.
Broadly, the IC50 is the concentration needed to halve the response being measured. High values mean lower potency, low ones higher potency. In turn, `CC(=O)N1CCc2ccc(N(C3CCN(Cc4ccccc4)CC3)S(=O)(=O)/C=C/c3ccccc3)cc21` came in with an IC50 of 30 µM. `CC(=O)N1CCc2ccc(N(C(=O)/C=C/c3ccccc3)C3CCN(Cc4ccccc4)C3)cc21` (stereo not drawn) gave an IC50 of 17.5 µM.

`CC(=O)N1CCc2ccc(N(C/C=C/c3ccccc3)C3CCN(Cc4ccccc4)CC3)cc21` returned an IC50 of 30 µM.
